# Patent US20230000945A1, “TOPICAL PHARMACEUTICAL FORMULATIONS OF A CYCLIC DEPSIPEPTIDE” (Lifemax Laboratories, Inc., priority 2020, published 2023)
# What was measured:
# [1] = Stability of LM030 formulations stored at 50° C. for 7 days; assay type: physicochemical; conditions: summary of Table 7
# [2] = General solubility and stability properties of LM030; assay type: physicochemical
# Description: Difficulties in formulating LM030 for topical administration are described in U.S. Pat. No. 8,680,054. In particular, the solubility and stability properties of LM030 create challenges in developing a topical formulation with adequate storage stability that is also able to provide an effective amount of active agent available for skin penetration [See col 4, lines 16-23].
structure (smiles),measurement,setting,value
CC[C@H](C)[C@@H]1NC(=O)[C@H](Cc2ccc(O)cc2)N(C)C(=O)[C@H]([C@@H](C)CC)N2C(=O)[C@H](CC[C@H]2O)NC(=O)[C@H](CC(C)C)NC(=O)[C@@H](NC(=O)[C@H](CCC(N)=O)NC(=O)C(C)C)[C@@H](C)OC1=O [LM030],stability in the presence of aqueous solutions,[1],poor stability
same,solubility in lipophilic excipients,[2],low
same,solubility in polar organic solvents,[2],good
same,solubility in water and aqueous buffers,[2],moderate
same,stability in polar organic solvents,[2],poor
